The source of these data is patent US20090325957A1, “MORPHOLINO PYRIMIDINE DERIVATIVES USEFUL IN THE TREATMENT OF PROLIFERATIVE DISORDERS” (ASTRAZENECA AB, priority 2006, published 2009).

Molecules are shown by their SMILES. Values joined by “and” are separate entries in the source; they are usually repeats but may differ in a detail not shown here. Identical values can stand only once.

recombinant mTOR, sequence (P42345 1362-2549): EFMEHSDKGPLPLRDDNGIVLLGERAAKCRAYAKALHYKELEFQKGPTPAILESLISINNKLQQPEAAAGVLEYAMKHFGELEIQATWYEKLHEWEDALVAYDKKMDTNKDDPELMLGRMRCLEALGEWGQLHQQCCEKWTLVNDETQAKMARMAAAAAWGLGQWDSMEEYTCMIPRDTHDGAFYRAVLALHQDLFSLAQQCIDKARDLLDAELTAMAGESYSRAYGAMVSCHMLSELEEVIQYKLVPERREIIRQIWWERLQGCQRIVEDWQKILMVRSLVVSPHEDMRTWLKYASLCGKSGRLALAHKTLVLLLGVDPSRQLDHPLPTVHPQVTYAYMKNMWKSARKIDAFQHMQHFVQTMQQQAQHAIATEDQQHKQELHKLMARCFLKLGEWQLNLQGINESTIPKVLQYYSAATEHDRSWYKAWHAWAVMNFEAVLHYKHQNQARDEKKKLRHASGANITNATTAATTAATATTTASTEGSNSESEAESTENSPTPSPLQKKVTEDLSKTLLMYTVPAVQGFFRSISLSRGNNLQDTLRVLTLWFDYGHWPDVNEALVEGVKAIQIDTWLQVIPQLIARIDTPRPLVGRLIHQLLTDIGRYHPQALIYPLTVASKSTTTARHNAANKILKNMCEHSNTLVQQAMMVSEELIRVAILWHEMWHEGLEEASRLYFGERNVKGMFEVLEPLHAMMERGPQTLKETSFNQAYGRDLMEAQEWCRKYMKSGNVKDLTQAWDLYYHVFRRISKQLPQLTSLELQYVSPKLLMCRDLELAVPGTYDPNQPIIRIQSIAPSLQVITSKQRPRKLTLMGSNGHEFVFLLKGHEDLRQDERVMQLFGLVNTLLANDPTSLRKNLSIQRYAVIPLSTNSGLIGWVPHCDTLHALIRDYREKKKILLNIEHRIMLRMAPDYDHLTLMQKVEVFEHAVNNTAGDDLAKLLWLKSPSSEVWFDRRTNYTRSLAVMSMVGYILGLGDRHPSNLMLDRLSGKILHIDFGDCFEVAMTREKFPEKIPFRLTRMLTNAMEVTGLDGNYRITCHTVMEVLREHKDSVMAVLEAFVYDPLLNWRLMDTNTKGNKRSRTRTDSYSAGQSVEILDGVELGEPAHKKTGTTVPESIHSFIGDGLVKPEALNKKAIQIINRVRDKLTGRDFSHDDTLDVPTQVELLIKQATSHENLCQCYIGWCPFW

One assay has as its target recombinant mTOR (Homo sapiens, UniProt P42345). Description: In vitro mTOR kinase assay (AlphaScreen), Test (a). The conditions noted are these: average value; read-out: Test (a) average IC50. The format is biochemical. As for the experimental part:
(a) In Vitro mTOR Kinase Assay
The assay used AlphaScreen technology (Gray et al., Analytical Biochemistry, 2003, 313: 234-245) to determine the ability of test compounds to inhibit phosphorylation by recombinant mTOR.
The HEK293 FLAG-tagged mTOR (1362-2549) stable cell line was routinely maintained at 37° C. with 5% CO2 up to a confluency of 70-90% in Dulbecco's modified Eagle's growth medium (DMEM; Invitrogen Limited, Paisley, UK Catalogue No. 41966-029) containing 10% heat-inactivated foetal calf serum (FCS; Sigma, Poole, Dorset, UK, Catalogue No. F0392), 1% L-glutamine (Gibco, Catalogue No. 25030-024) and 2 mg/ml Geneticin (G418 sulfate; Invitrogen Limited, UK Catalogue No. 10131-027). Following expression in the mammalian HEK293 cell line, expressed protein was purified using the FLAG epitope tag using standard purification techniques.
Test compounds were prepared as 10 mM stock solutions in DMSO and diluted into water as required to give a range of final assay concentrations. Aliquots (2 μl) of each compound dilution were placed into a well of a Greiner 384-well low volume (LV) white polystyrene plate (Greiner Bio-one).
Control wells that produced a maximum signal corresponding to maximum enzyme activity were created by using 5% DMSO instead of test compound. […] These assay solutions were incubated for 2 hours at room temperature.
Each reaction was stopped by the addition of 10 μl of a mixture of EDTA (50 mM), bovine serum albumin (BSA; 0.5 mg/mL) and Tris-HCl pH7.4 buffer (50 mM) containing
p70 S6 Kinase (T389) 1A5 Monoclonal Antibody (Cell Signalling Technology, Catalogue No. 9206B) and AlphaScreen Streptavidin donor and Protein A acceptor beads (200 ng; Perkin Elmer, Catalogue No. 6760002B and 6760137R respectively) were added and the assay plates were left for about 20 hours at room temperature in the dark. The resultant signals arising from laser light excitation at 680 nm were read using a Packard Envision instrument.
Phosphorylated biotinylated peptide is formed in situ as a result of mTOR mediated phosphorylation. The phosphorylated biotinylated peptide that is associated with AlphaScreen Streptavidin donor beads forms a complex with the p70 S6 Kinase (T389) 1A5 Monoclonal Antibody that is associated with Alphascreen Protein A acceptor beads. Upon laser light excitation at 680 nm, the donor bead: acceptor bead complex produces a signal that can be measured. Accordingly, the presence of mTOR kinase activity results in an assay signal. In the presence of an mTOR kinase inhibitor, signal strength is reduced.
mTOR enzyme inhibition for a given test compound was expressed as an IC50 value.
For orientation: IC50 means the concentration that inhibits the measured activity by half. For the compound `C[C@H]1COCCN1c1cc(CS(C)(=O)=O)nc(-c2ccc(CNS(C)(=O)=O)cc2)n1` [Example 5, N-[[4-[4-[(3S)-3-Methylmorpholin-4-yl]-6-(methylsulfonylmethyl)pyrimidin-2-yl]phenyl]methyl]methanesulfonamide], the IC50 was 4.5 µM.
The same measure, in the same setting: to `CCS(=O)(=O)Nc1ccc(-c2nc(CS(C)(=O)=O)cc(N3CCOCC3)n2)cc1` [Example 3a, N-[4-[4-(methylsulfonylmethyl)-6-morpholin-4-yl-pyrimidin-2-yl]phenyl]ethanesulfonamide] belongs 1.4 µM; to `CS(=O)(=O)Cc1cc(N2CCOCC2)nc(-c2ccc(NS(C)(=O)=O)cc2)n1` [Example 4, N-[4-[4-(Methylsulfonylmethyl)-6-morpholin-4-yl-pyrimidin-2-yl]phenyl]methanesulfonamide], 2.6 µM; to `CS(=O)(=O)Cc1cc(N2CCOCC2)nc(-c2ccc(NS(=O)(=O)C3CC3)cc2)n1` [Example 3, N-[4-[4-(Methylsulfonylmethyl)-6-morpholin-4-yl-pyrimidin-2-yl]phenyl]cyclopropanesulfonamide], 0.88 µM.
`CS(=O)(=O)Cc1cc(N2CCOCC2)nc(-c2ccc(NS(C)(=O)=O)c(CO)c2)n1` [Example 1, N-[2-(Hydroxymethyl)-4-[4-(methylsulfonylmethyl)-6-morpholin-4-yl-pyrimidin-2-yl]phenyl]methanesulfonamide]: the 50% inhibitory concentration (IC50) came to 5 µM.
Consider `C[C@H]1COCCN1c1cc(CS(C)(=O)=O)nc(-c2ccc(NS(C)(=O)=O)cc2)n1` [Example 6, N-[4-[4-[(3S)-3-Methylmorpholin-4-yl]-6-(methylsulfonylmethyl)pyrimidin-2-yl]phenyl]methanesulfonamide], for which the half-maximal inhibitory concentration (IC50) was determined as 1 µM.
The same measure, in the same setting: then `CS(=O)(=O)Cc1cc(N2CCOCC2)nc(-c2ccc(CNS(C)(=O)=O)cc2)n1` [Example 2, N-[[4-[4-(Methylsulfonylmethyl)-6-morpholin-4-yl-pyrimidin-2-yl]phenyl]methyl]methanesulfonamide], with 6.8 µM; and `CS(=O)(=O)Cc1cc(N2CCOCC2)nc(-c2ccc(NS(=O)(=O)Cc3ccc(F)cc3)cc2)n1` [Example 3d, 1-(4-fluorophenyl)-N-[4-[4-(methylsulfonylmethyl)-6-morpholin-4-yl-pyrimidin-2-yl]phenyl]methanesulfonamide], with 7.1 µM; and `CCCS(=O)(=O)Nc1ccc(-c2nc(CS(C)(=O)=O)cc(N3CCOCC3)n2)cc1` [Example 3b, N-[4-[4-(methylsulfonylmethyl)-6-morpholin-4-yl-pyrimidin-2-yl]phenyl]propane-1-sulfonamide], with 4 µM.
On the same count and under the same terms, to `CCCCS(=O)(=O)Nc1ccc(-c2nc(CS(C)(=O)=O)cc(N3CCOCC3)n2)cc1` [Example 3c, N-[4-[4-(methylsulfonylmethyl)-6-morpholin-4-yl-pyrimidin-2-yl]phenyl]butane-1-sulfonamide] belongs 6 µM.

Still in this assay, the particulars now being: single values, measured on three occasions; read-out: IC50 versus mTOR kinase.
On to `CS(=O)(=O)Cc1cc(N2CCOCC2)nc(-c2ccc(NS(C)(=O)=O)cc2)n1` [Example 4, N-[4-[4-(Methylsulfonylmethyl)-6-morpholin-4-yl-pyrimidin-2-yl]phenyl]methanesulfonamide], for which the IC50 is 3.32 µM and 2.49 µM and 2.25 µM.
